Usually Ki stands for the dissociation constant of the complex between target and ligand, obtained from inhibition or displacement. Broadly, the inhibition is the change of the read-out against control, counted positive when it falls. Read a low inhibition as little suppression.

Structures are written as SMILES.

These results are taken from ChEMBL document CHEMBL3608296, “Synthesis of sulfonamides incorporating piperazinyl-ureido moieties and their carbonic anhydrase I, II, IX and XII inhibitory activity” (Bioorg Med Chem Lett, 2015).

Experiment [1] addresses T1, Carbonic anhydrase 9 (Homo sapiens, UniProt Q16790).
Description: Inhibition of human carbonic anhydrase 9 preincubated for 15 mins by stopped flow CO2 hydration method
For experiment [2], the target named is Carbonic anhydrase 1 (Homo sapiens, UniProt P00915). Briefly: Inhibition of human carbonic anhydrase 1 preincubated for 15 mins by stopped flow CO2 hydration method.
The target in experiment [3] is Carbonic anhydrase 12 (Homo sapiens) (UniProt O43570). The note with it: at 0.01 µM.
Description: Inhibition of human carbonic anhydrase 12 at 10^-8 M preincubated for 15 mins by stopped flow CO2 hydration method relative to control
Experiment [4] concerns the target T1, Carbonic anhydrase 9. The note with it: at 0.01 µM.
Description: Inhibition of human carbonic anhydrase 9 at 10^-8 M preincubated for 15 mins by stopped flow CO2 hydration method relative to control
In experiment [5] the target is Carbonic anhydrase 12 (Homo sapiens) (UniProt O43570). The note with it: at 0.1 µM.
Description: Inhibition of human carbonic anhydrase 12 at 10^-7 M preincubated for 15 mins by stopped flow CO2 hydration method relative to control
For experiment [6] the target is unchanged. The note with it: at 1 µM.
Description: Inhibition of human carbonic anhydrase 12 at 10^-6 M preincubated for 15 mins by stopped flow CO2 hydration method relative to control
Experiment [7] concerns the target T1, Carbonic anhydrase 9. As to conditions: at 1 µM.
Description: Inhibition of human carbonic anhydrase 9 at 10^-6 M preincubated for 15 mins by stopped flow CO2 hydration method relative to control
Experiment [8] has as its target T1, Carbonic anhydrase 9. The note with it: at 0.001 µM.
Description: Inhibition of human carbonic anhydrase 9 at 10^-9 M preincubated for 15 mins by stopped flow CO2 hydration method relative to control
Experiment [9] deals with Carbonic anhydrase 12 (Homo sapiens) (UniProt O43570). The note with it: at 0.001 µM.
Description: Inhibition of human carbonic anhydrase 12 at 10^-9 M preincubated for 15 mins by stopped flow CO2 hydration method relative to control
Experiment [10] addresses T1, Carbonic anhydrase 9. As to conditions: at 0.1 µM.
Description: Inhibition of human carbonic anhydrase 9 at 10^-7 M preincubated for 15 mins by stopped flow CO2 hydration method relative to control

Carbonic anhydrase 12 (Homo sapiens), sequence (O43570 whole entry): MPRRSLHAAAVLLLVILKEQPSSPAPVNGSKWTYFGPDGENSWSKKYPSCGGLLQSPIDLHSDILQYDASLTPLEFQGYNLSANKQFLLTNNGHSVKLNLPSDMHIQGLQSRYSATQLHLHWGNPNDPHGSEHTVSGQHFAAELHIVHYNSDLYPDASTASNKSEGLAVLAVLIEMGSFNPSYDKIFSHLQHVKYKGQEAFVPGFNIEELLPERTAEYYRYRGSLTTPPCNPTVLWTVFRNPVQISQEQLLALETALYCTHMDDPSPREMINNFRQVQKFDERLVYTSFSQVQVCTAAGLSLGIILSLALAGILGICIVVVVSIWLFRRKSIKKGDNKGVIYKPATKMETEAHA
Carbonic anhydrase 1, sequence (P00915 whole entry): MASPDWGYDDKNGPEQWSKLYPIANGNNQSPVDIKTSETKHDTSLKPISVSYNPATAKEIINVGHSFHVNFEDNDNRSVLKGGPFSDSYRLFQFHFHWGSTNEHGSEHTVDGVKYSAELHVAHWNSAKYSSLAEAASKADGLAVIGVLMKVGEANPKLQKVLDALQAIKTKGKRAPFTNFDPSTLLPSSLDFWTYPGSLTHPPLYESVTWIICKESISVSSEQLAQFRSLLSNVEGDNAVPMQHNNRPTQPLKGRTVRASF

`NS(=O)(=O)c1ccc(NC(=O)N2CCN(c3nccc(C(F)(F)F)n3)CC2)cc1` returned a Ki in [1] of 0.134 µM.
As for `NS(=O)(=O)c1ccc(NC(=O)N2CCN(c3ccc(Cl)cc3)CC2)cc1`, the Ki in experiment [2] was greater than 10 µM; in [1] it was 0.32 µM.
With `NS(=O)(=O)c1ccc(NC(=O)N2CCN(C(=O)COc3ccc(Cl)cc3)CC2)cc1`, the inhibition in [3] amounted to 47%; in experiment [4], 47%; in experiment [5], 49%; in [6], 52%; in experiment [7] it was 52%; in experiment [8], 36%. Besides, the inhibition in experiment [9] was determined as 30%; in experiment [10] it was 48%.
`CC(C)(C)c1ccc(N2CCN(C(=O)Nc3ccc(S(N)(=O)=O)cc3)CC2)cc1` gave a Ki in experiment [1] of 0.129 µM.
Regarding `NS(=O)(=O)c1ccc(NC(=O)N2CCN(Cc3ccc(Cl)cc3)CC2)cc1`, in [1], the affinity corresponds to a Ki of 0.0396 µM.
Still for that read-out and setting: in the case of `NS(=O)(=O)c1ccc(NC(=O)N2CCN(c3cccc(Cl)c3)CC2)cc1` it was 0.233 µM; in that of `COc1cccc(N2CCN(C(=O)Nc3ccc(S(N)(=O)=O)cc3)CC2)c1`, 0.0396 µM.
Still for that read-out and setting: the same measure for `NS(=O)(=O)c1ccc(NC(=O)N2CCN(c3ccc(F)cc3)CC2)cc1`: 0.0099 µM.
On to `COc1ccc(CC(=O)N2CCN(C(=O)Nc3ccc(S(N)(=O)=O)cc3)CC2)cc1`, for which the inhibition in experiment [3] turned out to be 46%; in experiment [4] it was 47%; in [5], 49%; in experiment [6] it was 51%; in [7], 55%; in experiment [8] it was 36%. Besides, the inhibition in experiment [9] is 34%; in experiment [10] it was 49%.
With `NS(=O)(=O)c1ccc(NC(=O)N2CCN(c3ccccn3)CC2)cc1`, in experiment [1], the Ki is 0.487 µM.
Still for that read-out and setting: in the case of `NS(=O)(=O)c1ccc(NC(=O)N2CCN(c3ncccc3C(F)(F)F)CC2)cc1` it was 0.28 µM.
As to `NS(=O)(=O)c1ccc(NC(=O)N2CCN(C(=O)COc3ccc(Cl)cc3Cl)CC2)cc1`, the inhibition stood at 43% in experiment [3]; 49% in experiment [4]; 48% in [5]; 51% in [6]; 56% in [7]; 33% in experiment [8]. Also, the inhibition came to 29% in [9] and 51% in experiment [10].
For the compound `NS(=O)(=O)c1ccc(NC(=O)N2CCN(C(=O)Cc3ccc(Cl)cc3Cl)CC2)cc1`, the inhibition in experiment [3] was determined as 42%; in experiment [4] it was 48%; in [5], 48%; in experiment [6], 51%; in [7], 54%; in experiment [8], 38%. For the same compound, the inhibition in [9] came to 34%; in experiment [10] it was 49%.
As to `N#Cc1cccnc1N1CCN(C(=O)Nc2ccc(S(N)(=O)=O)cc2)CC1`, in experiment [1], affinity was put at a Ki of 0.202 µM.
Still for that read-out and setting: in the case of `COc1ccccc1N1CCN(C(=O)Nc2ccc(S(N)(=O)=O)cc2)CC1` it was 0.237 µM.
In the case of `NS(=O)(=O)c1ccc(NC(=O)N2CCN(C(=O)Cc3ccc(Cl)cc3)CC2)cc1`, the inhibition in [3] was found to be 40%; in [4], 45%; in experiment [5], 47%; in experiment [6], 51%; in [7], 51%; in [8], 37%. Further, the inhibition turned out to be 34% in [9] and 47% in experiment [10].
Turning to `NS(=O)(=O)c1ccc(NC(=O)N2CCN(c3ccccc3)CC2)cc1`, the Ki in experiment [1] came to 0.0087 µM.
Regarding `NS(=O)(=O)c1ccc(NC(=O)N2CCN(C(=O)COc3ccccc3)CC2)cc1`, the inhibition was 46% in experiment [3]; 35% in experiment [4]; 49% in experiment [5]; 51% in [6]; 55% in experiment [7]; 22% in [8]. Moreover, the figures for the inhibition in experiment [9] and in experiment [10] were 36% and 53%, respectively.
For the compound `NS(=O)(=O)c1ccc(NC(=O)N2CCN(C(=O)Cc3ccccc3)CC2)cc1`, the inhibition in [3] came out at 44%; in [4], 44%; in experiment [5], 47%; in experiment [6], 51%; in experiment [7] it was 54%; in experiment [8], 38%. Further, the inhibition in [9] was 26%; in experiment [10], 49%.
As to `NS(=O)(=O)c1ccc(NC(=O)N2CCN(c3ccc(Cl)c(Cl)c3)CC2)cc1`, the Ki in experiment [1] is 0.268 µM.
In turn, `NS(=O)(=O)c1ccc(NC(=O)N2CCN(c3ccc(C(F)(F)F)cn3)CC2)cc1` gave a Ki in experiment [1] of 0.514 µM.
The same measure, in the same setting: in the case of `NS(=O)(=O)c1ccc(NC(=O)N2CCN(Cc3ccccc3)CC2)cc1` it was 0.462 µM.
With `COc1ccc(N2CCN(C(=O)Nc3ccc(S(N)(=O)=O)cc3)CC2)cc1`, the Ki in [1] turned out to be 0.409 µM.
Take `COc1cc(CC(=O)N2CCN(C(=O)Nc3ccc(S(N)(=O)=O)cc3)CC2)cc(OC)c1O`: the inhibition in experiment [3] amounted to 45%; in [4], 41%; in experiment [5], 49%; in [6], 51%; in experiment [7], 55%; in [8] it was 37%. The figures for the inhibition in experiment [9] and in [10] were 34% and 52%, respectively.
As to `NS(=O)(=O)c1ccc(NC(=O)N2CCN(C(=O)Cc3ccc(O)cc3)CC2)cc1`, the inhibition in [3] was determined as 46%; in experiment [4], 45%; in experiment [5] it was 49%; in experiment [6] it was 58%; in experiment [7], 52%; in experiment [8], 34%. For the same compound, the inhibition came out at 33% in experiment [9] and 48% in experiment [10].
